Earlier results, collected in patent US20080221116A1, “ISOXAZOLINE ALPHA 1a/1d ADRENORECEPTOR ANTAGONISTS” (priority 2006, published 2008).

Assays:
5-HT1A site = target: T1, 5-HT1A site (Homo sapiens, UniProt P08908); conditions: as described in the article; cited from earlier work
T1 sequence (P08908 1-422): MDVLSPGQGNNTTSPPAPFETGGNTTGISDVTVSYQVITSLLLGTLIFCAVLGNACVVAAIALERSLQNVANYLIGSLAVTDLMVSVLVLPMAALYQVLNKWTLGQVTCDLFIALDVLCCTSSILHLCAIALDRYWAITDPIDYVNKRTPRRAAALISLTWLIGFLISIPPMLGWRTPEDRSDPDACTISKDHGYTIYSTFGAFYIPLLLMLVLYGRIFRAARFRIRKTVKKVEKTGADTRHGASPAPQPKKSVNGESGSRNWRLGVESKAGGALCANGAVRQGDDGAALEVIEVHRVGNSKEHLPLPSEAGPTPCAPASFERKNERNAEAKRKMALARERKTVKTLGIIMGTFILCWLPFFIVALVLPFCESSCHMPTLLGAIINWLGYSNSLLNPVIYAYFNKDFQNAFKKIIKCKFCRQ

[1] = as described in the article; cited from earlier work
D2 = D2 (Homo sapiens, UniProt P14416); conditions: as described in the article; cited from earlier work
Sequence of D2 (P14416 whole entry): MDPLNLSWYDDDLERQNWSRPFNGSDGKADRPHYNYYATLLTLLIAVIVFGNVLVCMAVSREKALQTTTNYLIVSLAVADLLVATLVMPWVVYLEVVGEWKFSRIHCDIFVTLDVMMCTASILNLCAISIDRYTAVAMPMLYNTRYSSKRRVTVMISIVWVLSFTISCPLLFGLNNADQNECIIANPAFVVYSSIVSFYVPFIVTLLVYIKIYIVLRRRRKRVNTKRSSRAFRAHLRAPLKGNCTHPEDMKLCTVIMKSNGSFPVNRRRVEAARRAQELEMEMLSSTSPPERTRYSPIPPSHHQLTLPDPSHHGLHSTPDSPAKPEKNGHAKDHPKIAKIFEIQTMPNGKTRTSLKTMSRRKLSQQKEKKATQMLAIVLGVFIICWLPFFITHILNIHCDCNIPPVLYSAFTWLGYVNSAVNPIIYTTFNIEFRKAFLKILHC

| Compound | binding affinity for the 5-HT1A site (5-HT1A site) | Conditioned Avoidance Response (CAR) activity [1] | D2 binding (D2) |
| --- | --- | --- | --- |
| CC(C)Oc1ccccc1N1CCN(CC2CC(CN3CCCCC3=O)=NO2)CC1.O.[O-][Cl+3]([O-])([O-])O (centres unmarked) [compound 50, 1-[[4,5-dihydro-5-[[4-[2-(1-methylethoxy)phenyl]-1-piperazinyl]methyl]-3-isoxazolyl]methyl]-piperidin-2-one perchlorate hydrate] | moderately high | not so active | – |
| CC(C)Oc1ccccc1N1CCN(CC2CC(CO)=NO2)CC1 (centres unmarked) [compound 49, 4,5-dihydro-5-[[4-[2-(1-methylethoxy)phenyl]-1-piperazinyl]methyl]-3-isoxazolemethanol] | lack | strong | lack |
